For test [1], the target named is T1, human 5-HT1A receptor (Homo sapiens, UniProt P08908).
T1 construct: expressed in transfected cells
T1 sequence (P08908 1-422): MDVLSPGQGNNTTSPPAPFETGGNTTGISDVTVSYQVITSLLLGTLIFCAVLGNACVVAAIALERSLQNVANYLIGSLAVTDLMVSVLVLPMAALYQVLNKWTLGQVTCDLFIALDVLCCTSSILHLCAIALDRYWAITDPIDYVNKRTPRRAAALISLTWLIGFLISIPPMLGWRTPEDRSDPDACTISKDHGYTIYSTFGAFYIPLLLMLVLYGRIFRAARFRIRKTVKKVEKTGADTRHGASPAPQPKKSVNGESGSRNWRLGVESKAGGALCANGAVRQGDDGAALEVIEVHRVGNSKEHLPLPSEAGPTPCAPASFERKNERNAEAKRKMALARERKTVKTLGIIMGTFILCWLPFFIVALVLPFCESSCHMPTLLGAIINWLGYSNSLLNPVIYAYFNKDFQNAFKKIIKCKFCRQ
Kind of test: Radioligand binding with [3H]8-OH-DPAT on membranes of 5-HT1A.CHO cells. The procedure:
The PCR cloning of the human 5-HT1A receptor subtype from a human genomic library has been described previously (Chanda et al., Mol. Pharmacol., 43:516 (1993)). A stable Chinese hamster ovary cell line expressing the human 5-HT1A receptor subtype (5-HT1A.CHO cells) was employed throughout this study. Cells were maintained in DMEM supplemented with 10% fetal calf serum, non-essential amino acids and penicillin/streptomycin. Radioligand binding assays were performed as described in Dunlop, J. et al., J. Pharmacol. and Toxicol. Methods 40: 47-55 (1998), which is incorporated by reference. Cells were grown to 95-100% confluency as a monolayer before membranes were harvested for binding studies. Cells were gently scraped from the culture plates, transferred to centrifuge tubes, and washed twice by centrifugation (2000 rpm for 10 min., 4° C.) in buffer (50 mM Tris; pH 7.5). The resulting pellets were aliquoted and placed at −80° C. On the day of assay, the cells were thawed on ice, and resuspended in buffer. Studies were conducted using [^3H]8-OH-DPAT as the radioligand. The binding assay was performed in 96 well microtiter plates in a final total volume of 250 μL of buffer. Competition experiments were performed by using seven different concentrations of unlabelled drug and a final ligand concentration of 1.5 nM. Non-specific binding was determined in the presence of 10 μM 5HT. Saturation analysis was conducted by using [^3H]8-OH-DPAT at concentrations ranging from 0.3-30 nM. Following a 30 minute incubation at room temperature, the reaction was terminated by the addition of ice cold buffer and rapid filtration using a M-96 Brandel Cell Harvester (Gaithersburg, Md.) through a GF/B filter presoaked for 30 minutes in 0.5% polyethyleneimine. Table 1 provides Ki values for the tested compounds.

For test [2], the target named is T1, human 5-HT1A receptor. The experiment in a line: cAMP measurements, antagonist mode: block of 8-OH-DPAT-induced inhibition of forskolin-stimulated cAMP. The test is classed as cell-based. The procedure:
The PCR cloning of the human 5-HT1A receptor subtype from a human genomic library has been described previously (Chanda et al., Mol. Pharmacol., 43:516 (1993)). A stable Chinese hamster ovary cell line expressing the human 5-HT1A receptor subtype (5-HT1A.CHO cells) was employed throughout this study. Cells were maintained in DMEM supplemented with 10% fetal calf serum, non-essential amino acids and penicillin/streptomycin. Measurements were performed as described in Dunlop, J. et al., supra. Assays were performed by incubating the cells with DMEM containing 25 mM HEPES, 5 mM theophylline and 10 μM pargyline for a period of 20 minutes at 37° C. […] The reaction was terminated by removal of the media and addition of 0.5 ml ice cold assay buffer. Plates were stored at −20° C. prior to assessment of cAMP formation by a cAMP SPA assay (Amersham). Compounds of the invention were tested according to the protocol described. […] Compounds having 5-HT1A antagonist activity show no effect on forskolin-induced increases in cAMP levels on their own, but block the 8-OH-DPAT-induced inhibition of forskolin-stimulated increases in cAMP levels. Results are required as IC50 values (Table 1, “Antagonist Activity IC50”)

In test [3] the target is T1, human 5-HT1A receptor. The experiment in a line: cAMP measurements, agonist mode: inhibition of forskolin-induced increase in cAMP. The test is classed as cell-based. The following applies: forskolin 1 uM, 5-HT1A.CHO cells. Here is the method: The PCR cloning of the human 5-HT1A receptor subtype from a human genomic library has been described previously (Chanda et al., Mol. Pharmacol., 43:516 (1993)). A stable Chinese hamster ovary cell line expressing the human 5-HT1A receptor subtype (5-HT1A.CHO cells) was employed throughout this study. Cells were maintained in DMEM supplemented with 10% fetal calf serum, non-essential amino acids and penicillin/streptomycin.
Measurements were performed as described in Dunlop, J. et al., supra. Assays were performed by incubating the cells with DMEM containing 25 mM HEPES, 5 mM theophylline and 10 μM pargyline for a period of 20 minutes at 37° C. Functional activity was assessed by treating the cells with forskolin (1 uM final concentration) followed immediately by test compound (6 different concentrations) for an additional 10 minutes at 37° C. In separate experiments, 6 concentrations of antagonist were preincubated for 20 min prior to the addition of 10 nM 8-OH-DPAT and forskolin. The reaction was terminated by removal of the media and addition of 0.5 ml ice cold assay buffer. Plates were stored at −20° C. prior to assessment of cAMP formation by a cAMP SPA assay (Amersham). […]

Where [4] appears, read: [3H]8-OH-DPAT 1.5 nM, 5-HT1A.CHO cell membranes, read-out: 5-HT1A Affinity Ki.
[5] abbreviates: 10 nM 8-OH-DPAT and forskolin, 5-HT1A.CHO cells, read-out: Antagonist Activity IC50.

pEC50, pIC50, pKi: −log10 of the molar value. Like-named read-outs stand apart in the source and are kept apart here.

The pKi is −log10 of the Ki, conventionally taken in molar units. As a reminder, the pIC50 is the IC50 on a negative log10 scale, so that one unit is a factor of ten. Turning to `COc1cc(N2CCN(C3CCN(c4cccc5cccnc45)CC3)CC2)c2ncccc2c1` [A, 6-Methoxy-8-{4-[1-(8-quinolinyl)-4-piperidinyl]-1-piperazinyl}quinoline], the pKi on human 5-HT1A receptor [1] (setting [4]) was 9.40. The pIC50 at human 5-HT1A receptor [2] (setting [5]) was 8.41.

Turning to `Fc1cc(N2CCN(C3CCN(c4cccc5cccnc45)CC3)CC2)c2ncccc2c1` [B, 6-fluoro-8-{4-[1-(8-quinolinyl)-4-piperidinyl]-1-piperazinyl}quinoline], at human 5-HT1A receptor [1] (setting [4]), the pKi was 9.34. Further, at human 5-HT1A receptor [2] (setting [5]), the pIC50 was 7.60.

The pEC50 is the EC50 on a negative log10 scale, so that one unit is a factor of ten. Lower therefore signals a high EC50. In the case of `Fc1ccc(N2CCC(N3CCN(c4cccc5cccnc45)CC3)CC2)c2ncccc12` [C, 5-fluoro-8-{4-[4-(8-quinolinyl)-1-piperazinyl]-1-piperidinyl}-quinoline], the pKi at human 5-HT1A receptor [1] (setting [4]) is 9.62. For the same compound, the pEC50 at human 5-HT1A receptor [3] was 8.16.

As to `c1cnc2c(N3CCC(N4CCN(c5cccc6[nH]ccc56)CC4)CC3)cccc2c1` [D, 8-{4-[4-(1H-indole-4-yl)-1-piperazinyl]-1-piperidinyl}quinoline], on human 5-HT1A receptor [1] (setting [4]), the negative logarithm of the Ki (pKi) was 9.23. This compound gave a negative-log IC50 (pIC50) against human 5-HT1A receptor [2] of 7.62.

Consider `c1cc2c(c(N3CCN(C4CCN(c5cccc6cccnc56)CC4)CC3)c1)OCCO2` [E, 8-{4-[4-(2,3-dihydro-1,4-benzo[1,4]dioxane-5-yl)-1-piperazinyl]-1-piperidinyl}quinoline], for which the pKi at human 5-HT1A receptor [1] (setting [4]) was 9.42. Further, the pEC50 at human 5-HT1A receptor [3] is 8.62.

Turning to `c1cnc2c(N3CCC(N4CCN(c5cccc6cccnc56)CC4)CC3)cccc2c1` [Example 3, 8-{4-[1-(8-quinolinyl)-4-piperidinyl]-1-piperazinyl}quinoline], the pKi at human 5-HT1A receptor [1] (setting [4]) is 9.40. Also, the pEC50 on human 5-HT1A receptor [3] is 8.00.

On to `Clc1cc(N2CCC(N3CCN(c4cc(Cl)cc5cccnc45)CC3)CC2)c2ncccc2c1` [Example 4, 6-chloro-8-{4-[4-(6-chloro-8-quinolinyl)-1-piperazinyl]-1-piperidinyl}quinoline], for which the negative-log Ki (pKi) at human 5-HT1A receptor [1] (setting [4]) was 6.30.

Take `Fc1cc(N2CCN(C3CCN(c4cc(Cl)cc5cccnc45)CC3)CC2)c2ncccc2c1` [Example 5, 8-{4-[1-(6-chloro-8-quinolinyl)-4-piperidinyl]-1-piperazinyl}-6-fluoroquinoline]: on human 5-HT1A receptor [1] (setting [4]), the pKi is 6.97.

Regarding `Clc1ccc(N2CCN(C3CCN(c4cccc5cccnc45)CC3)CC2)c2ncccc12` [Example 8, 5-chloro-8-{4-[1-(8-quinolinyl)-4-piperidinyl]-1-piperazinyl}quinoline], the pKi on human 5-HT1A receptor [1] (setting [4]) was 9.51. In addition, the pEC50 at human 5-HT1A receptor [3] was 7.70.

Take `Cc1ccc2cccc(N3CCN(C4CCN(c5cccc6cccnc56)CC4)CC3)c2n1` [Example 10, 2-methyl-8-{4-[1-(8-quinolinyl)-4-piperidinyl]-1-piperazinyl}quinoline]: on human 5-HT1A receptor [1] (setting [4]), the pKi was 9.08. The pEC50 at human 5-HT1A receptor [3] was 8.48.

Consider `Clc1cc(N2CCN(C3CCN(c4cccc5cccnc45)CC3)CC2)c2ncccc2c1` [Example 11, 6-chloro-8-{4-[1-(8-quinolinyl)-4-piperidinyl]-1-piperazinyl}quinoline], for which the pKi on human 5-HT1A receptor [1] (setting [4]) is 9.32. This compound showed a pEC50 on human 5-HT1A receptor [3] of 8.42.

Take `FC(F)(F)c1ccc(N2CCN(C3CCN(c4cccc5cccnc45)CC3)CC2)c2ncccc12` [Example 12, 8-{4-[1-(8-quinolinyl)-4-piperidinyl]-1-piperazinyl}-5-(trifluoromethyl)quinoline]: the pKi on human 5-HT1A receptor [1] (setting [4]) is 8.52. The pIC50 at human 5-HT1A receptor [2] (setting [5]) is 7.45.

Regarding `COc1ccc(N2CCN(C3CCN(c4cccc5cccnc45)CC3)CC2)c2ncccc12` [Example 14, 5-Methoxy-8-{4-[1-(8-quinolinyl)-4-piperidinyl]-1-piperazinyl}-quinoline], the pKi at human 5-HT1A receptor [1] (setting [4]) is 8.84. Also, the pIC50 on human 5-HT1A receptor [2] (setting [5]) is 7.19.

Regarding `Fc1ccc(N2CCN(C3CCN(c4cccc5cccnc45)CC3)CC2)c2ncccc12` [Example 15], at human 5-HT1A receptor [1] (setting [4]), the pKi was 9.82. Further, on human 5-HT1A receptor [2] (setting [5]), the negative logarithm of the IC50 (pIC50) is 7.63.

As for `Clc1cc(N2CCC(N3CCN(c4coc5ccccc45)CC3)CC2)c2ncccc2c1` [Example 16, 8-{4-[4-(1-Benzofuran-3-yl)-1-piperazinyl]-1-piperidinyl}-6-chloroquinoline], the pKi on human 5-HT1A receptor [1] (setting [4]) is 6.83. In addition, the pIC50 on human 5-HT1A receptor [2] (setting [5]) was 5.97.

For the compound `Fc1ccc2occ(N3CCN(C4CCN(c5ccc(F)c6cccnc56)CC4)CC3)c2c1` [F, 5-fluoro-8-{4-[4-(5-fluoro-1-benzofuran-3-yl)-1-piperazinyl]-1-piperidinyl}quinoline], the pKi on human 5-HT1A receptor [1] (setting [4]) was 8.77. Further, the pIC50 on human 5-HT1A receptor [2] (setting [5]) was 7.97.

As for `COc1ccccc1N1CCN(C2CCN(c3csc4ccccc34)CC2)CC1` [G, 1-[1-(1-benzothien-3-yl)-4-piperidinyl]-4-(2-methoxyphenyl)piperazine], the pKi at human 5-HT1A receptor [1] (setting [4]) is 7.57. For the same compound, the pEC50 on human 5-HT1A receptor [3] is 7.66.

For the compound `COc1ccccc1N1CCN(C2CCN(c3noc4ccccc34)CC2)CC1` [H, 3-{4-[4-(2-methoxyphenyl)-1-piperazinyl]-1-piperidinyl}-1,2-benzisoxazole], the pKi on human 5-HT1A receptor [1] (setting [4]) was 8.84. The compound also showed a pEC50 at human 5-HT1A receptor [3] of 8.60.

The compound `Clc1cc(N2CCC(N3CCN(c4cccc5[nH]ccc45)CC3)CC2)c2ncccc2c1` [I, 6-Chloro-8-{4-[4-(1H-indole-4-yl)-1-piperazinyl]-1-piperidinyl}quinoline] gave a pKi on human 5-HT1A receptor [1] of 7.39.

As for `COc1cc(N2CCN(C3CCN(c4c(F)ccc5cccnc45)CC3)CC2)c2ncccc2c1` [J, 8-{4-[1-(7-Fluoroquinolin-8-yl)piperidin-4-yl]piperazin-1-yl}-6-methoxyquinoline], the pKi on human 5-HT1A receptor [1] (setting [4]) is 9.21. Besides, the pIC50 at human 5-HT1A receptor [2] (setting [5]) is 8.00.

For the compound `Fc1cc(N2CCN(C3CCN(c4ccc5cccnc5c4F)CC3)CC2)c2ncccc2c1` [K, 6-Fluoro-8-{4-[1-(8-fluoroquinolin-7-yl)piperidin-4-yl]piperazin-1-yl}quinoline], on human 5-HT1A receptor [1] (setting [4]), the pKi is 9.57. Moreover, the pEC50 on human 5-HT1A receptor [3] is 9.08.

As to `COc1cc(N2CCN(C3CCN(Cc4cccc5cccnc45)CC3)CC2)c2ncccc2c1` [M, 6-Methoxy-8-{4-[1-(quinolin-8-ylmethyl)piperidin-4-yl]piperazin-1-yl}quinoline], the pKi at human 5-HT1A receptor [1] (setting [4]) is 7.12. Moreover, the pIC50 on human 5-HT1A receptor [2] (setting [5]) is 6.75.

Regarding `COc1cc(N2CCN(C3CCN(c4ccc(F)c5c(OC)cc(C(F)(F)F)nc45)CC3)CC2)c2ncccc2c1` [N, 5-fluoro-4-methoxy-8-(4-(4-(6-methoxyquinolin-8-yl)piperazin-1-yl)piperidin-1-yl)-2-(trifluoromethyl)quinoline], the pKi at human 5-HT1A receptor [1] is 8.69. In addition, the negative logarithm of the IC50 (pIC50) against human 5-HT1A receptor [2] is 8.04.

Consider `COc1cc(N2CCN(C3CCN(c4ccc(F)c5cccnc45)CC3)CC2)c2ncccc2c1` [P, 5-Fluoro-8-(4-(4-(6-methoxyquinolin-8-yl)piperazin-1-yl)piperidin-1-yl)-quinoline], for which the pIC50 on human 5-HT1A receptor [2] (setting [5]) is 8.43.

(Values after patent US7671056B2, “Piperazine-piperidine antagonists and agonists of the 5-HT1A receptor” (Wyeth LLC, priority 2005, dated 2010).)
